According to US20220380769A1 (priority 2020, published 2022):
Converted amounts (≈) assume the structure as drawn. “Also recorded” adds a separate entry of the source. Where two headings read alike, the source gives them in different places.

Experiments:
[1] = test system: SARS-CoV-2 (strain USA-WA1/2020); assay: microbe, parasite or virus in culture; type: cell-based
[2] = test system: SARS-associated coronavirus Strain FFM1; settings: Strain FFM1/Caco-2; cited from earlier work
[3] = test system: SARS-CoV Strain v2163; settings: in vivo, cited from earlier work
[4] = test system: SARS-associated coronavirus Strain FFM1; settings: Strain FFM1/CL-14; cited from earlier work
[5] = test system: SARS coronavirus 2003VA2774; settings: cited from earlier work
[6] = human; cited from earlier work
[7] = test system: SARS coronavirus Strain 39849; settings: Strain 39849/Vero E6; cited from earlier work
[8] = test system: human CoV strain OC43; settings: Strain OC43/BS-C-1 Kidney cells (African Green Monkey); inhibition of CPE; cited from earlier work
[9] = test system: Ebola Virus; settings: in vivo, 6 mg/kg
[10] = cited from earlier work
[11] = test system: normal, human-derived tracheal/bronchial epithelial (TBE) cells
[12] = Clinical safety and tolerability in humans; type: in vivo, human
Text: Favorable safety profiles have been seen for intraperitoneal, intravenous, and intranasal routes of administration of tdsRNA.

[13] = test system: avian H5N1 and H7N9 influenza hemagglutinins (HAs); settings: in vivo; cited from earlier work
[14] = test system: H5N1 influenza viruses; settings: in vivo; cited from earlier work
[15] = test system: Mouse Hepatitis CoV MHV; settings: Mouse Hepatitis CoV MHV/BALB/c mice/IP; 10 μg/dose; cited from earlier work
[16] = test system: SARS virus (Urbani Strain); settings: in vivo, cited from earlier work
[17] = Synergy of rintatolimod with antiviral and antiproliferative drugs
Text: These interferons include rIFN-α-2a, rIFN-β-1b, rIFN-γ.

[18] = test system: H5N1 influenza virus; settings: in vivo; cited from earlier work
[19] = test system: TLR3; assay: TLR3 agonist selectivity versus RNA helicase sensors (MDA5, RIG-I); settings: versus TLR-3 independent pathways (MDA5, RIG-I)
Text: (§1) Of the tdsRNA of the disclosure, the tdsRNA of formula 1 and formula 5 is preferred. This is because mis-paired regions of base pair hydrogen bonding accelerate chain hydrolysis while preserving biological activity compared to, for example, formula 3 and formula 4. Also formula 1 and formula 5 had decreased toxicity and improved safety compared to the tdsRNA which has an absence of mis-pairing.

[20] = Development of antibodies to the dsRNA in usage
Text: as §1

[21] = test system: TNF-α; assay: TNF-α induction
Text: as §1

## CCC(CC)COC(=O)[C@H](C)N[P@](=O)(OC[C@H]1O[C@@](C#N)(c2ccc3c(N)ncnn23)[C@H](O)[C@@H]1O)Oc1ccccc1 [Remdesivir]
[1]; 0.001 μg/mL
  Log10 CCID50 virus per 0.2 mL: 4.30
[1]; 0.01 μg/mL
  Log10 CCID50 virus per 0.2 mL: 3.67
[1]; 0.1 μg/mL
  Log10 CCID50 virus per 0.2 mL: 3.00
[1]; 1 μg/mL
  Log10 CCID50 virus per 0.2 mL: 3.00
[1]; Severe acute respiratory syndrome coronavirus 2, read-out: EC90 (concentration to reduce virus yield by 1 log10)
  EC90: 0.01 µg/mL (≈ 0.0166 µM)

## NC(=O)c1ncn([C@@H]2O[C@H](CO)[C@@H](O)[C@H]2O)n1 [Ribavirin]
[2]
  EC50: EC50: 4.7 μg/mL
[3]
  Survival (mice surviving/total): (3/10) 65
[4]
  EC50: EC50: 5.3 μg/mL
[5]
  IC100: IC100: 5,000 μg/mL
[6]
  clinically achievable serum concentrations: 3.7 µg/mL
[7]
  EC50: EC50: 50-100 μg/mL

## Polyribosinic-Polyribocytidylic Acid Stabilized with Poly-L-lysine, in Carboxymethylcellulose [Poly ICLC]
[8]
  EC50: EC50: >100 μg/mL

## rIn.r(C12U)n [Rintatolimod]
[9]
  Survival: 100%
[10]; 700 mg in an average weight human (70 kg), equivalent to 10 mg/kg
  tolerability of dosage level: generally well-tolerated
[10]; Chronic Fatigue Syndrome (CFS) patients, placebo-controlled trials
  tolerability administered intravenously: generally well-tolerated
[11]; 0.5 mg/mL
  cytotoxic / cellular toxicity: 0%
[11]; 1.5 mg/mL
  cytotoxic / cellular toxicity: 0%
[11]; 4.5 mg/mL
  cytotoxic: 12%
[11]; 10 mg/mL
  cytotoxic: 47%
[12]; clinical trials, over 1,200 patients
  drug-related deaths: no drug-related deaths
[12]; over 1,200 patients, over 100,000 doses
  tolerability in clinical trials: well-tolerated
[12]; two placebo-controlled, randomized studies
  serious adverse events compared to placebo: no increase
[13]
  cross-reactive IgA antibody formation against avian H5N1 and H7N9 influenza hemagglutinins: induced cross-reactive IgA antibody formation
  tolerability of combinational use with FluMist: well tolerated
[14]
  antigen specific IgA response in the nasal mucosa: robust antigen specific IgA response
  protection against challenge with homologous and heterologous H5N1 influenza viruses: protected
[15]
  Survival: increased survival
[3]; 10 mg/kg/day
  lung scores and weight loss: significantly reduced
[3]
  Survival: 100%
  Survival (mice surviving/total): 10/10 and (10/10)
  decline of virus in the lungs compared with untreated animals: more rapid decline of virus in the lungs
[16]; ip
  Drug Dose giving reduction of virus lung titers below level of detection on Day 3: 10 mg/kg
[16]
  SARS virus (Urbani Strain) titers in the lungs: Complete inhibition to below detectable levels; also recorded: reduced virus lung titers to below detectable limits
[17]; HIV/AIDS, rIFN-α-2a, rIFN-β-1b, rIFN-γ
  synergy with α, β, and γ interferons, antiviral indication: synergy; also recorded: synergistic
[17]; Influenza (oseltamivir, zanamivir), HIV/AIDS (abacavir, zidovudine, zalcitabine, didanosine, stavudine, efavirenz, indinavir, ritonavir, nelfinavir, amprenavir, ribavirin)
  synergy with small molecule antiviral drugs: synergy; also recorded: synergistic
[17]; interferons (nIFN-α, rIFN-α-2a, nIFN-β, rIFN-β-1b, nIFN-γ), IL-2, Anti-PD-L1
  synergy, antiproliferative (cancer) indications: synergistic
[18]
  Vaccine specific salivary IgA and serum IgG antibodies: detected after the second immunization
  protection from challenge infection with the homologous virus: completely protected
  serum neutralizing antibody activity against homologous and heterologous H5N1 influenza virus: developed serum neutralizing anti-body activity

## rIn.r(CxU)n [formula 1]
[19]
  TLR3 agonist selectivity: selective TLR3 agonist
[20]
  development of antibodies: no development of antibodies
[21]
  TNF-α induction: does not induce TNF-α

## rIn.rCn [formula 4]
[19]
  TLR3 agonist selectivity: non-selective
[21]
  TNF-α induction: high levels

## rugged dsRNA [formula 5]
[19]
  TLR3 agonist selectivity: selective TLR3 agonist
[20]
  development of antibodies: no development of antibodies
[21]
  TNF-α induction: does not induce TNF-α
